Common to all, as to type: toxicity, cell-based
One series relates to U2OS. Put plainly: Incucyte cell viability with U2OS. The conditions noted are these: human, 10 µM, compound concentration 10 uM.
A further series deals with Fibroblast. As to the kind of experiment: Incucyte cell viability with human fibroblast. The settings on record: 10 µM, compound concentration 10 uM.
The subject of a further series is HEK-293T. Put plainly: Incucyte cell viability with HEK293T. The settings on record: human, 10 µM, compound concentration 10 uM.
Further: unitless GR value; below 1 slowed growth and below 0 cell loss.

As for `O=C1Nc2ccc(C(=O)c3ccco3)cc2C1=Cc1cc(Cl)c(O)c(Cl)c1` [GW406108X], the “Growth Rate” value in the series with U2OS (6 h, replicate number 2) is recorded as -0.19; in the series with U2OS (12 h, replicate number 1), 0.5; in the series on U2OS (12 h, replicate number 2), 0.24; in the series on U2OS (18 h, replicate number 1), 0.4; in the series with U2OS (18 h, replicate number 2) it was 0.33; with U2OS (24 h, replicate number 1), 0.56. For the same compound, the “Growth Rate” value in the series with U2OS (24 h, replicate number 2) is reported as 0.38; with Fibroblast (0 h, replicate number 1) it was -1; in the series on Fibroblast (12 h, replicate number 2) it was 1; with Fibroblast (18 h, replicate number 1) it was 1; in the series with Fibroblast (18 h, replicate number 2) it was 0.83; in the series on Fibroblast (24 h, replicate number 1) it was 0.7. Also, the “Growth Rate” value in the series on Fibroblast (24 h, replicate number 2) was 0.64; with HEK-293T (0 h, replicate number 1), -1; with HEK-293T (0 h, replicate number 2) it was 0.57; with HEK-293T (6 h, replicate number 1), 0.79; with HEK-293T (6 h, replicate number 2), 0.56; in the series on HEK-293T (12 h, replicate number 1), 0.25. Further, the “Growth Rate” value with HEK-293T (12 h, replicate number 2) turned out to be 0.31; in the series on HEK-293T (18 h, replicate number 1) it was 0.41; in the series with HEK-293T (18 h, replicate number 2), 0.17; in the series on HEK-293T (24 h, replicate number 1) it was 0.24; in the series on HEK-293T (24 h, replicate number 2), 0.11.
`COc1ccc(C(=O)N[C@H](C)c2cccc(C(=O)Nc3nc4c(s3)CN(C)CC4)c2)cc1C.O=C(O)C(F)(F)F`: the “Growth Rate” value in the series on U2OS (18 h, replicate number 2) is 0.97; with U2OS (24 h, replicate number 2) it was 0.88; with Fibroblast (0 h, replicate number 1), 0.21; in the series with Fibroblast (0 h, replicate number 2), -0.72; in the series with HEK-293T (0 h, replicate number 1), -0.36.
As for `C=CC(=O)Nc1cccc(C)c1Nc1ncc2cc(-c3c(Cl)c(OC)cc(OC)c3Cl)ccc2n1`, the “Growth Rate” value was -0.45 in the series with U2OS (0 h, replicate number 1); 0.38 with U2OS (0 h, replicate number 2); 0.45 with U2OS (6 h, replicate number 1); 0.31 in the series on U2OS (6 h, replicate number 2); 0.25 in the series on U2OS (12 h, replicate number 1); 0.5 with U2OS (12 h, replicate number 2). The “Growth Rate” value is 0.32 in the series on U2OS (18 h, replicate number 1); 0.42 with U2OS (18 h, replicate number 2); 0.38 with U2OS (24 h, replicate number 1); 0.4 with U2OS (24 h, replicate number 2); -0.64 with Fibroblast (6 h, replicate number 1); -0.2 in the series on Fibroblast (6 h, replicate number 2). The “Growth Rate” value in the series on Fibroblast (12 h, replicate number 1) is reported as 0.12; in the series on Fibroblast (12 h, replicate number 2), 0.44; in the series on Fibroblast (18 h, replicate number 1) it was 0.03; with Fibroblast (18 h, replicate number 2) it was 0.44; in the series on Fibroblast (24 h, replicate number 1), 0.05; with Fibroblast (24 h, replicate number 2) it was 0.33. Further, the “Growth Rate” value is recorded as -0.39 in the series with HEK-293T (6 h, replicate number 1); -0.56 in the series with HEK-293T (6 h, replicate number 2); -0.35 in the series on HEK-293T (12 h, replicate number 1); -0.45 in the series with HEK-293T (12 h, replicate number 2); -0.32 with HEK-293T (18 h, replicate number 1); -0.41 in the series with HEK-293T (18 h, replicate number 2). In addition, the “Growth Rate” value is given as -0.21 in the series on HEK-293T (24 h, replicate number 1) and -0.26 in the series with HEK-293T (24 h, replicate number 2).
For the compound `COc1cnccc1Nc1nc(-c2nn(Cc3c(F)cc(OCCO)cc3F)c3ccccc23)ncc1OC`, the “Growth Rate” value in the series on U2OS (0 h, replicate number 1) is -1; with U2OS (0 h, replicate number 2), -0.09; with U2OS (6 h, replicate number 1) it was -0.05; in the series on U2OS (6 h, replicate number 2), -0.04; in the series on U2OS (12 h, replicate number 1), -0.2; with U2OS (12 h, replicate number 2) it was 0.06. Further, the “Growth Rate” value is listed as -0.22 with U2OS (18 h, replicate number 1); 0.21 in the series on U2OS (18 h, replicate number 2); -0.17 in the series on U2OS (24 h, replicate number 1); 0.09 in the series with U2OS (24 h, replicate number 2); -0.29 in the series with Fibroblast (6 h, replicate number 1); 0.31 with Fibroblast (6 h, replicate number 2). In addition, the “Growth Rate” value in the series with Fibroblast (12 h, replicate number 1) is -0.23; with Fibroblast (12 h, replicate number 2) it was 0.04; in the series on Fibroblast (18 h, replicate number 1), -0.14; in the series with Fibroblast (18 h, replicate number 2), -0.07; in the series with Fibroblast (24 h, replicate number 1), -0.14; in the series on Fibroblast (24 h, replicate number 2) it was -0.03. Also, the “Growth Rate” value in the series with HEK-293T (0 h, replicate number 1) is reported as -1; with HEK-293T (0 h, replicate number 2), -0.96; with HEK-293T (6 h, replicate number 2), -0.05; with HEK-293T (12 h, replicate number 2) it was -0.01; in the series on HEK-293T (18 h, replicate number 2) it was 0.13; in the series on HEK-293T (24 h, replicate number 2), 0.21.
Regarding `COC[C@@H](CC(C)C)NC1=N/C(=C\c2ccc3ncsc3c2)C(=O)N1C`, the “Growth Rate” value with U2OS (0 h, replicate number 1) was 0.04; in the series with U2OS (12 h, replicate number 1), 0.73; in the series on U2OS (12 h, replicate number 2), 0.64; in the series with U2OS (18 h, replicate number 1), 0.43; in the series with U2OS (18 h, replicate number 2) it was 0.37; in the series with U2OS (24 h, replicate number 1) it was 0.37. Moreover, the “Growth Rate” value is listed as 0.28 in the series on U2OS (24 h, replicate number 2); -0.97 in the series on Fibroblast (6 h, replicate number 1); 0.03 with Fibroblast (6 h, replicate number 2); 0.07 with Fibroblast (12 h, replicate number 2); 0.63 in the series on Fibroblast (18 h, replicate number 1); 0.3 in the series on Fibroblast (18 h, replicate number 2). Moreover, the “Growth Rate” value in the series with Fibroblast (24 h, replicate number 2) is recorded as 0.51; with HEK-293T (0 h, replicate number 1) it was 0.16; in the series with HEK-293T (0 h, replicate number 2) it was 0.12; in the series on HEK-293T (6 h, replicate number 1) it was 0.37; in the series on HEK-293T (6 h, replicate number 2), 0.4; in the series on HEK-293T (12 h, replicate number 1), -0.18. Besides, the “Growth Rate” value came to 0.3 in the series with HEK-293T (12 h, replicate number 2); 0.35 with HEK-293T (18 h, replicate number 1); 0.69 with HEK-293T (18 h, replicate number 2); 0.68 with HEK-293T (24 h, replicate number 1); 0.6 in the series on HEK-293T (24 h, replicate number 2).
As for `Cc1c(C(=O)NCCCN(C)C)sc2ncnc(Nc3ccc(F)cc3OC(C)CF)c12` (centres undefined), the “Growth Rate” value in the series on U2OS (0 h, replicate number 2) is 0.69; in the series on Fibroblast (6 h, replicate number 1), -1; in the series with Fibroblast (18 h, replicate number 2) it was 0.93; in the series with Fibroblast (24 h, replicate number 2), 0.55; in the series on HEK-293T (6 h, replicate number 1), -0.52; in the series on HEK-293T (6 h, replicate number 2), 0.2. The “Growth Rate” value is -0.29 with HEK-293T (12 h, replicate number 1); 0.14 with HEK-293T (12 h, replicate number 2); -0.13 with HEK-293T (18 h, replicate number 1); 0.14 with HEK-293T (18 h, replicate number 2); 0.07 in the series with HEK-293T (24 h, replicate number 1); 0.16 in the series on HEK-293T (24 h, replicate number 2).
Turning to `COc1c(NC(=O)c2cc3cccc(Oc4ccnc(C(=O)N5CCN(C)CC5)c4)c3n2C)cc(C(C)(C)C)cc1NS(C)(=O)=O`, the “Growth Rate” value is on record as -0.03 in the series with U2OS (0 h, replicate number 1); 0.57 with U2OS (0 h, replicate number 2); 0.82 in the series with U2OS (6 h, replicate number 1); 0.58 in the series with U2OS (6 h, replicate number 2); 0.79 in the series with U2OS (12 h, replicate number 1); 0.69 in the series on U2OS (12 h, replicate number 2). Besides, the “Growth Rate” value is on record as 0.83 in the series on U2OS (18 h, replicate number 1); 0.7 with U2OS (18 h, replicate number 2); 0.84 with U2OS (24 h, replicate number 1); 0.69 with U2OS (24 h, replicate number 2); 0.02 in the series with Fibroblast (6 h, replicate number 1); 0.43 in the series with Fibroblast (6 h, replicate number 2). The “Growth Rate” value is reported as 0.98 in the series with Fibroblast (12 h, replicate number 2); 0.87 in the series with HEK-293T (0 h, replicate number 1); -0.84 in the series with HEK-293T (0 h, replicate number 2); 0.93 in the series on HEK-293T (6 h, replicate number 1); 0.57 in the series on HEK-293T (6 h, replicate number 2); 0.77 in the series on HEK-293T (12 h, replicate number 2). Besides, the “Growth Rate” value in the series on HEK-293T (18 h, replicate number 2) was found to be 0.93.
For `C[C@@H](Cn1c(=O)[nH]/c(=N\c2ccc(Oc3ccccn3)cc2)n(Cc2ccc(Cl)cc2)c1=O)C(=O)O`, the “Growth Rate” value in the series on U2OS (0 h, replicate number 2) is given as -0.83; in the series on U2OS (6 h, replicate number 2), 0.93; in the series on U2OS (12 h, replicate number 1) it was 0.97; in the series with U2OS (18 h, replicate number 1) it was 0.99; with Fibroblast (6 h, replicate number 1), -0.1; with Fibroblast (6 h, replicate number 2), -1. For the same compound, the “Growth Rate” value came out at 0.04 with Fibroblast (12 h, replicate number 2); 0.75 in the series on Fibroblast (18 h, replicate number 2); 0.85 with Fibroblast (24 h, replicate number 2); 0.2 in the series with HEK-293T (6 h, replicate number 1); 0.62 in the series on HEK-293T (6 h, replicate number 2); 0.97 in the series on HEK-293T (18 h, replicate number 1).

Values taken from ChEMBL document CHEMBL5303304, “EUbOPEN Chemogenomics Library - IncuCyte” (2023).
